This is an account of results in ChEMBL document CHEMBL1157049, “Synthesis and study of some new 1,3-isoindoledione derivatives as potential antibacterial agents” (2010).

One experiment relates to Bacillus thuringiensis. The experiment is described as follows: Antimicrobial activity Bacillus thuringiensis at 2 mg/mL after 24 hrs by agar diffusion technique. Format: functional. The note with it: read-out: DIZ. (A growth-free zone around the sample is the usual read-out of agar diffusion tests.)
Another experiment has as its system Escherichia coli. The experiment is described as follows: Antimicrobial activity Escherichia coli at 2 mg/mL after 24 hrs by agar diffusion technique. Format: functional. The note with it: read-out: DIZ.

Consider `Nc1ccccc1N1C(=O)C2C3c4ccccc4C(c4ccccc43)C2C1=O` (stereo not drawn), for which the zone of inhibition at 2000 µg/mL in the experiment on Bacillus thuringiensis was 17 mm; in the experiment on Escherichia coli it was 12 mm.

`CCOC(=O)c1c(N2C(=O)C3C4c5ccccc5C(c5ccccc54)C3C2=O)sc2c1CCCC2` (stereo not drawn): the figures for the zone of inhibition at 2000 µg/mL with Bacillus thuringiensis and in the experiment on Escherichia coli were 15 mm and 14 mm, respectively.

With `O=C(c1ccc(N2C(=O)C3C4c5ccccc5C(c5ccccc54)C3C2=O)cc1)c1nc2ccccc2[nH]1` (stereo not drawn), the zone of inhibition at 2000 µg/mL turned out to be 20 mm in the experiment with Bacillus thuringiensis and 23 mm with Escherichia coli.

As for `O=C1C2C3c4ccccc4C(c4ccccc43)C2C(=O)N1c1ccccc1SSc1ccccc1N1C(=O)C2C3c4ccccc4C(c4ccccc43)C2C1=O` (stereo not drawn), the zone of inhibition at 2000 µg/mL with Bacillus thuringiensis and in the experiment on Escherichia coli was 17 mm each time.

For the compound `CC(=O)c1ccc(N2C(=O)C3C4c5ccccc5C(c5ccccc54)C3C2=O)cc1` (stereo not drawn), the zone of inhibition at 2000 µg/mL in the experiment on Bacillus thuringiensis came out at 15 mm; in the experiment with Escherichia coli, 12 mm.

With `O=C1C2C3c4ccccc4C(c4ccccc43)C2C(=O)N1c1ccccc1O` (stereo not drawn), the zone of inhibition at 2000 µg/mL in the experiment on Bacillus thuringiensis worked out at 17 mm; in the experiment with Escherichia coli, 16 mm.

Regarding `O=C1C2C3c4ccccc4C(c4ccccc43)C2C(=O)N1c1ccccc1S` (stereo not drawn), the figures for the zone of inhibition at 2000 µg/mL in the experiment with Bacillus thuringiensis and in the experiment with Escherichia coli were 18 mm and 16 mm, respectively.

For `CC(=O)Nc1ccccc1N1C(=O)C2C3c4ccccc4C(c4ccccc43)C2C1=O` (stereo not drawn), the zone of inhibition at 2000 µg/mL in the experiment with Bacillus thuringiensis was found to be 18 mm; with Escherichia coli, 16 mm.

`O=C1/C(=N\c2ccccc2N2C(=O)C3C4c5ccccc5C(c5ccccc54)C3C2=O)C=C(Nc2ccccc2N2C(=O)C3C4c5ccccc5C(c5ccccc54)C3C2=O)c2ccccc21` (stereo not drawn): the zone of inhibition at 2000 µg/mL in the experiment on Bacillus thuringiensis and with Escherichia coli was 17 mm throughout.

On to `CC1(C)S[C@@H]2[C@H](NC(=O)[C@H](N)c3ccccc3)C(=O)N2[C@H]1C(=O)O` [AMPICILLIN], for which the zone of inhibition at 2000 µg/mL in the experiment with Bacillus thuringiensis is 18 mm; with Escherichia coli it was 19 mm.

For the compound `O=C(c1ccc(N2C(=O)C3C4c5ccccc5C(c5ccccc54)C3C2=O)cc1)C(Br)Br` (stereo not drawn), the zone of inhibition at 2000 µg/mL in the experiment on Bacillus thuringiensis worked out at 17 mm; in the experiment with Escherichia coli, 14 mm.

For the compound `O=C1C2C3c4ccccc4C(c4ccccc43)C2C(=O)N1c1ccc(/N=N/c2ccccc2)cc1` (stereo not drawn), the zone of inhibition at 2000 µg/mL turned out to be 13 mm with Bacillus thuringiensis and 14 mm with Escherichia coli.

Consider `Cc1ccc(/N=N/c2ccc(N3C(=O)C4C5c6ccccc6C(c6ccccc65)C4C3=O)cc2)cc1` (stereo not drawn), for which the zone of inhibition at 2000 µg/mL in the experiment with Bacillus thuringiensis was determined as 11 mm; in the experiment with Escherichia coli it was 14 mm.

Regarding `O=C1C2C3c4ccccc4C(c4ccccc43)C2C(=O)N1C(CO)(CO)CO` (stereo not drawn), the zone of inhibition at 2000 µg/mL in the experiment on Bacillus thuringiensis amounted to 15 mm; with Escherichia coli, 14 mm.

For `Cc1ccc(S(=O)(=O)Oc2ccccc2N2C(=O)C3C4c5ccccc5C(c5ccccc54)C3C2=O)cc1` (stereo not drawn), the zone of inhibition at 2000 µg/mL in the experiment with Bacillus thuringiensis amounted to 15 mm; with Escherichia coli it was 18 mm.

On to `COC(=O)n1c(C2C3c4ccccc4C(c4ccccc43)C2C(=O)O)nc2ccccc21` (stereo not drawn), for which the zone of inhibition at 2000 µg/mL worked out at 17 mm in the experiment with Bacillus thuringiensis and 13 mm with Escherichia coli.

`Cc1ccc2nc(N3C(=O)C4C5c6ccccc6C(c6ccccc65)C4C3=O)sc2c1` (stereo not drawn): the zone of inhibition at 2000 µg/mL amounted to 26 mm in the experiment on Bacillus thuringiensis and 29 mm in the experiment on Escherichia coli.

Turning to `O=C1C2C3c4ccccc4C(c4ccccc43)C2C(=O)N1c1nc[nH]n1` (stereo not drawn), the results for the zone of inhibition at 2000 µg/mL with Bacillus thuringiensis and in the experiment on Escherichia coli were 17 mm and 15 mm, respectively.

On to `O=C(N[C@H](CO)[C@H](O)c1ccc([N+](=O)[O-])cc1)C(Cl)Cl` [CHLORAMPHENICOL], for which the zone of inhibition at 2000 µg/mL was determined as 23 mm in the experiment on Bacillus thuringiensis and 20 mm with Escherichia coli.
